This note sets out measurements from PMC7044277 (Nature Communications, 2020).

Format in all cases: cell-based, human
Common to all, as to details: drug alone

Assay [1] deals with serotonin receptor (subtype not given; reference agonist serotonin). As to the kind of experiment: β-arrestin2 recruitment (Tango), agonist activity, source data Fig_S10l.
For assay [2] the test system is unchanged. Description: β-arrestin2 recruitment (Tango), agonist activity, source data Fig_S10m. In general terms: Arrestin recruitment assays detect the binding of arrestin to an activated receptor.
In assay [3] the test system is serotonin receptor of Fig_S10i (subtype not given). Description: β-arrestin2 recruitment (Tango), agonist activity, source data Fig_S10i.

Molecules are shown by their SMILES. Values joined by “and” are separate entries in the source; they are usually repeats but may differ in a detail not shown here. Equal entries are not always repeated.

On to `NCCc1c[nH]c2ccc(O)cc12` [serotonin], for which the “response, Fig_S10l, replicate values” in assay [1] (Log[Drug] -6.52) was 89.1482 and 68.7936 and 58.4442; in assay [1] (Log[Drug] -7), 66.8775 and 42.3868 and 35.3098 and 60.5263 and 52.6042 and 58.638 and 24.4765 and 22.6408 and 30.0813; in assay [1] (Log[Drug] -7.52), 68.5906 and 51.7176 and 27.5973 and 17.0437 and 36.727 and -5.864 and 8.121 and 12.6341 and 15.0506; in assay [1] (Log[Drug] -8) it was 24.3997 and 25.1743 and 11.0247 and 13.4188 and 3.861 and -8.27 and 5.486 and 9.516 and -0.3454; in assay [1] (Log[Drug] -8.52), 28.2691 and 10.8991 and 0.6654 and 20.8515 and 4.218 and 3.753 and -2.601 and -10.3369 and 7.58; in assay [1] (Log[Drug] -9), 8.291 and 7.398 and -4.407 and 28.3765 and 10.5666 and -13.7434 and -1.811 and 21.0925 and -2.254. In addition, the “response, Fig_S10l, replicate values” is 15.1454 and -8.903 and -7.678 and 11.6014 and -2.921 and -5.371 and 3.959 and 0.2537 and -8.706 in assay [1] (Log[Drug] -9.52); 10.6015 and 17.2844 and 5.47 and 9.7774 and -6.372 and -8.832 and 0.1972 and 15.6666 and 6.603 in assay [1] (Log[Drug] -10); 14.0658 and 3.099 and 4.084 and 6.9236 and -15.9908 and -3.571 and 14.7648 and -9.016 and -4.897 in assay [1] (Log[Drug] -10.52); 11.925 and 9.507 and -4.609 and 40.988 and 1.279 and -23.0265 and -4.413 and 0.5655 and 2.993 in assay [1] (Log[Drug] -11); 29.1466 and 5.5415 and 2.1791 and 13.0085 and 1.916 and 6.51 and 8.732 and 12.6601 in assay [1] (Log[Drug] -11.52); 12.8871 and 8.151 and 29.2053 and 0.5174 and 13.376 and 13.9134 and 1.483 and -15.396 in assay [1] (Log[Drug] -12). The “response, Fig_S10m, replicate values” was 3.734 and -1.123 and -0.8977 and 1.459 and 2.0512 and -0.1515 and 0.5699 and -0.8279 and -0.6726 in assay [2] (Log[Drug] -10); -0.9054 and 0.7992 and -0.375 and 2.687 and -0.4536 and -1.101 and 0.7884 and 1.319 and 1.427 in assay [2] (Log[Drug] -10.52); -0.3557 and -1.309 and -0.2288 and 0.2231 and 0.02755 and -0.2525 and -0.3422 and 5.614 and 6.013 in assay [2] (Log[Drug] -11); -1.125 and -2.817 and 2.535 and -0.5885 and 3.063 and -0.9769 and 1.62 and 5.903 and -1.503 in assay [2] (Log[Drug] -11.52); -0.7563 and 2.962 and 1.0473 and 9.322 and 7.524 and 1.413 and -1.187 and 0.2988 and 0.8898 in assay [2] (Log[Drug] -12). Moreover, the “response, single replicates of the concentration-response curve” value is -4.3954 and -4.987 and -4.556 and 52.5363 and 8.29 and -6.9 and -8.356 and -5.164 and -18.2115 in assay [3] (Log[Drug] -11.52); 5.024 and 5.16 and -7.062 and 21.8387 and 17.0887 and 8.533 in assay [3] (Log[Drug] -12).
